Test results taken from ChEMBL document CHEMBL5370561, “Characterization of a Malabaricane-Type Triterpene Synthase from Astragalus membranaceus and Enzymatic Synthesis of Astramalabaricosides” (J Nat Prod, 2023).

Tests used:
BGC-823 = experiment: Cytotoxicity against human BGC-823 cells assessed as reduction in cell growth measured after 72 hrs by MTT assay; format: functional, cell-based; details: BGC-823, 72 h
Influenza A virus = experiment: Antiviral activity against Influenza A virus infected in HEK293T-GlUC cells assessed as inhibition of viral replication at 10 uM preincubated with cells for 2 hrs followed by viral infection and measured after 24 hrs relative to control; format: functional; details: HEK-293T, time 26 hrs
PC-9 = experiment: Cytotoxicity against human PC-9 cells assessed as reduction in cell growth measured after 72 hrs by MTT assay; format: functional, cell-based; details: PC-9, 72 h
HCT-116 = experiment: Cytotoxicity against human HCT-116 cells assessed as reduction in cell growth measured after 72 hrs by MTT assay; format: functional, cell-based; details: HCT-116, 72 h
HepG2 [1] = experiment: Cytotoxicity against human HepG2 cells assessed as reduction in cell growth measured after 72 hrs by MTT assay; format: functional, cell-based; details: HepG2, 72 h
RAW264.7 = experiment: Antiinflammatory activity in LPS-induced mouse RAW264.7 cells assessed as inhibition of TNF-alpha production at 10 uM incubated for 1 hr followed by LPS-stimulation and measured after 24 hrs by ELISA analysis relative to control; format: functional; details: time 25 hrs
PANC-1 = experiment: Cytotoxicity against human PANC-1 cells assessed as reduction in cell growth measured after 72 hrs by MTT assay; format: functional, cell-based; details: PANC-1, 72 h
HepG2 [2] = experiment: Hepatoprotective activity against APAP-induced cell injury in human HepG2 cells assessed as cell survival rate at 10 uM incubated for 24 hrs by MTT assay relative to control; format: functional

Row | Compound | IC50 (BGC-823) | inhibition at 10 µM (Influenza A virus) | IC50 (PC-9) | IC50 (HCT-116) | IC50 (HepG2 [1]) | inhibition at 10 µM (RAW264.7) | IC50 (PANC-1) | Activity (HepG2 [2])
1 | C=C(CC/C=C(\C)CCC=C(C)C)[C@H]1CC[C@H]2[C@@]1(C)CC[C@H]1C(C)(C)[C@@H](O)CC[C@]21C | > 50 µM | 45% | > 50 µM | > 50 µM | > 50 µM | 40% | > 50 µM | –
2 | CC(C)=CCC/C(C)=C/CCC(C)(O)[C@H]1CC[C@H]2[C@@]1(C)CC[C@H]1C(C)(C)[C@@H](O)CC[C@]21C (some centres undefined) | 40 µM | 71% | 14 µM | 17 µM | 22 µM | 34% | 15 µM | 47%
3 | CC(C)=CCC/C(C)=C/CC[C@@](C)(O)[C@@H]1CC[C@H]2[C@@]1(C)CC[C@H]1C(C)(C)[C@@H](O[C@@H]3O[C@H](CO)[C@@H](O)[C@H](O)[C@H]3O[C@@H]3O[C@H](CO)[C@@H](O)[C@H](O)[C@H]3O)CC[C@]21C | 26 µM | 65% | 36 µM | 39 µM | > 50 µM | 30% | 45 µM | 48%
4 | CC(C)=CCC[C@@](C)(O)[C@H]1CC[C@]2(C)[C@@H]1CC[C@@H]1[C@@]3(C)CC[C@H](O)C(C)(C)[C@@H]3CC[C@]12C | 40 µM | 57% | 49 µM | 40 µM | 37 µM | 43% | 33 µM | 51%
5 | CC(C)=CCC/C(C)=C/CC[C@@](C)(O)[C@@H]1CC[C@H]2[C@@]1(C)CC[C@H]1C(C)(C)[C@@H](O[C@@H]3O[C@H](CO)[C@@H](O)[C@H](O)[C@H]3O)CC[C@]21C | > 50 µM | 47% | 49 µM | 28 µM | > 50 µM | 39% | 22 µM | 55%
6 | CC(C)=CCC/C(C)=C/CC[C@@](C)(O)[C@@H]1CC[C@H]2[C@@]1(C)CC[C@H]1C(C)(C)[C@@H](O)CC[C@]21C | 42 µM | 76% | 44 µM | 41 µM | 31 µM | 42% | 29 µM | –
7 | CC(C)=CC/C=C(/C)[C@H]1CC[C@]2(C)[C@@H]1CC[C@@H]1[C@@]3(C)CC[C@H](O)C(C)(C)[C@@H]3CC[C@]12C | > 50 µM | 88% | > 50 µM | > 50 µM | > 50 µM | 50% | > 50 µM | 52%
8 | C=C(CC/C=C(\C)CCC=C(C)C)[C@@H]1CC[C@H]2[C@@]1(C)CC[C@H]1C(C)(C)[C@@H](O)CC[C@]21C | > 50 µM | 62% | > 50 µM | > 50 µM | > 50 µM | 53% | > 50 µM | 58%
9 | C[C@@H]1C[C@H]2[C@@H]3CCC4=CC(=O)C=C[C@]4(C)[C@@]3(F)[C@@H](O)C[C@]2(C)[C@@]1(O)C(=O)CO [DEXAMETHASONE] | – | – | – | – | – | 55% | – | –
10 | N[C@@H](CCC(=O)N[C@@H](CS)C(=O)NCC(=O)O)C(=O)O [GLUTATHIONE] | – | – | – | – | – | – | – | 60%
11 | C=C(C)[C@@H]1CC[C@]2(C)CC[C@]3(C)[C@H](CC[C@@H]4[C@@]5(C)CC[C@H](O)C(C)(C)[C@@H]5CC[C@]43C)[C@@H]12 [LUPEOL] | > 50 µM | 17% | > 50 µM | > 50 µM | > 50 µM | 34% | > 50 µM | –
12 | CC(=O)O[C@H]1C(=O)[C@@]2(C)[C@H]([C@H](OC(=O)c3ccccc3)[C@]3(O)C[C@H](OC(=O)[C@H](O)[C@@H](NC(=O)c4ccccc4)c4ccccc4)C(C)=C1C3(C)C)[C@]1(OC(C)=O)CO[C@@H]1C[C@@H]2O [PACLITAXEL] | – | – | – | – | 0.064 µM | – | 0.004 µM | –
13 | NC(=O)c1ncn([C@@H]2O[C@H](CO)[C@@H](O)[C@H]2O)n1 [RIBAVIRIN] | – | 97% | – | – | – | – | – | –
